The text below walks through data of paper PMC5981863 (ACS infectious diseases, 2017).

Converted amounts (≈) assume the structure as drawn.

One assay relates to E. coli DH10B. The assay can be described thus: MIC, agar dilution and liquid microdilution. The class given is cell-based, Escherichia coli.
Assay [1] concerns E. coli DH10B pBCSK, blaADC-7. The assay can be described thus: MIC, agar dilution and liquid microdilution. Type of assay: cell-based, Escherichia coli. For orientation: In agar dilution the substance is mixed into plates at graded concentrations.
Assay [2] has as its system E. coli DH10B pBCSK, blaADC-7, R340A. Put plainly: MIC, agar dilution and liquid microdilution. The class given is cell-based, Escherichia coli.
Assay [3] deals with E. coli DH10B pBCSK, blaADC-7, R340K. The assay can be described thus: MIC, agar dilution and liquid microdilution. The class given is cell-based, Escherichia coli.
For assay [4], the system named is E. coli DH10B pBCSK, blaADC-7, N213A. The assay can be described thus: MIC, agar dilution and liquid microdilution. Type of assay: cell-based, Escherichia coli.
The next assay relates to A. baumannii M9. The assay can be described thus: MIC, agar dilution and liquid microdilution. Type of assay: cell-based.
A further assay deals with ADC-7/R340A mutant. The assay can be described thus: Competition kinetics with nitrocefin. Type of assay: biochemical, Acinetobacter baumannii.
The next assay relates to ADC-7. The assay can be described thus: Thermal denaturation by circular dichroism. Type of assay: binding, Acinetobacter baumannii. The conditions noted are these: ADC-7 alone Tm ≈61 °C.
Where [5] appears, read: MIC of CAZ in combination with 4 μg/mL BATSI compound.

For orientation: MIC means the lowest concentration that inhibits growth of the organism. As to `O=S(=O)(NCB(O)O)c1ccc(-c2nn[nH]n2)cc1` [CR157], the minimal inhibitory concentration (MIC) in the assay on E. coli DH10B (setting [5]) worked out at 0.5 µg/mL; in assay [1] (setting [5]), 1 µg/mL; in assay [2] (setting [5]), 0.5 µg/mL; in assay [3] (setting [5]), 1 µg/mL; in assay [4] (setting [5]), 2 µg/mL; in the assay on A. baumannii M9 (setting [5]), 8 µg/mL.

As to `O=C(Cc1cccs1)NCB(O)O` [achiral cephalothin, reference compound], the MIC was 0.5 µg/mL in the assay with E. coli DH10B (setting [5]); 32 µg/mL in assay [1] (setting [5]); 32 µg/mL in assay [2] (setting [5]); 32 µg/mL in assay [3] (setting [5]); 32 µg/mL in assay [4] (setting [5]); 32 µg/mL in the assay with A. baumannii M9 (setting [5]).

As usually defined, the Ki is a measure of affinity in units of concentration, obtained from inhibition or displacement. A higher Ki goes with a looser hold on the target. As for `O=S(=O)(NCB(O)O)c1ccc(-c2nn[nH]n2)cc1C(F)(F)F` [CR192], the MIC stood at 0.5 µg/mL with E. coli DH10B (setting [5]); 2 µg/mL in assay [1] (setting [5]); 0.5 µg/mL in assay [2] (setting [5]); 2 µg/mL in assay [3] (setting [5]); 1 µg/mL in assay [4] (setting [5]); 8 µg/mL in the assay with A. baumannii M9 (setting [5]). At ADC-7/R340A mutant, this compound displayed a Ki of 8.3 nM. In addition, in the assay with ADC-7, the “Tm of ADC-7/compound complex” value was approximately 70 °C.

For `O=C(O)c1cccc(CS(=O)(=O)NCB(O)O)c1` [CR167], the minimum inhibitory concentration (MIC) in the assay on E. coli DH10B (setting [5]) worked out at 0.5 µg/mL; in assay [1] (setting [5]) it was 1 µg/mL; in assay [2] (setting [5]), 2 µg/mL; in assay [3] (setting [5]) it was 4 µg/mL; in assay [4] (setting [5]) it was 4 µg/mL; with A. baumannii M9 (setting [5]) it was 16 µg/mL.

`O=S(=O)(NCB(O)O)c1ccc(-c2nn[nH]n2)nc1` [CR161]: the MIC in the assay with E. coli DH10B (setting [5]) worked out at 0.5 µg/mL; in assay [1] (setting [5]), 0.5 µg/mL; in assay [2] (setting [5]), 1 µg/mL; in assay [3] (setting [5]), 1 µg/mL; in assay [4] (setting [5]) it was 2 µg/mL.

For `CC(C)(O/N=C(\C(=O)N[C@@H]1C(=O)N2C(C(=O)[O-])=C(C[n+]3ccccc3)CS[C@H]12)c1csc(N)n1)C(=O)O` [CAZ, ceftazidime, reference compound], the MIC in the assay with E. coli DH10B (Escherichia coli, DH10B) was 1 µg/mL (≈ 1.83 µM); in assay [1] (Escherichia coli) it was 64 µg/mL (≈ 117 µM); in assay [2] (Escherichia coli), 32 µg/mL (≈ 58.5 µM); in assay [3] (Escherichia coli), 32 µg/mL (≈ 58.5 µM); in assay [4] (Escherichia coli), 32 µg/mL (≈ 58.5 µM); in the assay with A. baumannii M9 (Acinetobacter baumannii, M9) it was more than 64 µg/mL. The same compound returned an MIC in the assay on A. baumannii M9 (CAZ alone) of more than 64 µg/mL.
